Each block holds one molecule with its values, some of them ahead of it. The source made the active and inactive calls. The calls are words filed in the database; no cut-off is given here.
Legend:
[1] = system: A549; experiment: cells; conditions: Homo sapiens, A549, 72 h
Description: Antiproliferative activity against human A549 cells incubated for 72 hrs by CCK8 assay

[2] = target: T1, Lysine-specific histone demethylase 1A (Homo sapiens, UniProt O60341)
Description: Inhibition of human recombinant LSD1 using fluorogenic ADHP based substrate preincubated for 30 mins followed by substrate addition measured after 10 mins by horseradish peroxidase coupled fluorescence assay

[3] = system: MCF7; experiment: cells; conditions: Homo sapiens, MCF7, 72 h
Description: Antiproliferative activity against human MCF7 cells incubated for 72 hrs by CCK8 assay

[4] = system: THP-1; experiment: cells; conditions: Homo sapiens, THP-1, 72 h
Description: Antiproliferative activity against human THP-1 cells incubated for 72 hrs by CCK8 assay

[5] = system: NB-4; experiment: cells; conditions: Homo sapiens, NB-4, 72 h
Description: Antiproliferative activity against human NB-4 cells incubated for 72 hrs by CCK8 assay

[6] = system: MGC-803; experiment: cells; conditions: Homo sapiens, MGC-803, 72 h
Description: Antiproliferative activity against human MGC-803 cells incubated for 72 hrs by CCK8 assay

[7] = system: PC-3; experiment: cells; conditions: Homo sapiens, PC-3, 72 h
Description: Antiproliferative activity against human PC-3 cells incubated for 72 hrs by CCK8 assay

[8] = Solubility of compound; format: physicochemical
[9] = system: MGC-803; experiment: Cell cycle arrest in human MGC-803 cells assessed as increase in S phase accumulation at 4 uM after 72 hrs by propidium iodide staining based flow cytometry; format: functional
[10] = Stability in human liver microsomes assessed as parent compound remaining preincubated for 10 mins followed by NADPH regenerating system addition and measured up to 60 mins by LC-MS/MS analysis; format: ADME, Microsome; conditions: time 10-70 min, read-out: Stabilty
[11] = target: T2, Amine oxidase [flavin-containing] A (Homo sapiens, UniProt P21397); experiment: Inhibition of recombinant N-terminal FLAG-tagged human MAOA expressed in baculovirus infected Sf9 insect cells using luminogenic MAO substrate measured after 1 hr by MAO-glo assay
T2 sequence (P21397 whole entry): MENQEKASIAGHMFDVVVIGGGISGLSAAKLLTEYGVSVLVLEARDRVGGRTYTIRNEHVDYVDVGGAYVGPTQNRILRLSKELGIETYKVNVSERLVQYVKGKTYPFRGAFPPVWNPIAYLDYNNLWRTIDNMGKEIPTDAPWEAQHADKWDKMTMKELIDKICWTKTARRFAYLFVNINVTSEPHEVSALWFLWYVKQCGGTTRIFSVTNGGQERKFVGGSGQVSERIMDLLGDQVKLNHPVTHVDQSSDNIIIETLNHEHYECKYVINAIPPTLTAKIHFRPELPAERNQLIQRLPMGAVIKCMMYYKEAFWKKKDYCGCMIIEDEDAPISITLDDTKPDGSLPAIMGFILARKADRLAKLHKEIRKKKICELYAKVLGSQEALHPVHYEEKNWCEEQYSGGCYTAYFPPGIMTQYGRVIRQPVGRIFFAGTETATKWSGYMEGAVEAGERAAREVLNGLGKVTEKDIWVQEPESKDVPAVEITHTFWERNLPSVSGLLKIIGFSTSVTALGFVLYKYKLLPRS

[12] = target: T1, Lysine-specific histone demethylase 1A; experiment: Reversible inhibition of recombinant N-terminal FLAG-tagged human LSD1 expressed in baculovirus infected Sf9 insect cells at 10 times IC50 using H3K4me2 as substrate preincubated for 30 mins followed by 100 fold dilution and subsequent substrate addition and measured after 30 mins by jump dilution method; conditions: time 60.0 min
[13] = system: MGC-803; experiment: Cell cycle arrest in human MGC-803 cells assessed as decrease in G2/M phase accumulation at 4 uM after 72 hrs by propidium iodide staining based flow cytometry; format: functional
[14] = target: T1, Lysine-specific histone demethylase 1A; experiment: Non-competitive inhibition of recombinant N-terminal FLAG-tagged human LSD1 expressed in baculovirus infected Sf9 insect cells up to 0.6 uM using varying levels of H3K4me2 as substrate measured after 45 mins by Lineweaver-burk plot analysis; conditions: dose microM <=0.6, time 45.0 min
[15] = target: T1, Lysine-specific histone demethylase 1A; experiment: Inhibition of LSD1 in human MGC-803 cells assessed as increase in H3K9me2 accumulation up to 4 uM measured after 72 hrs by Western blot analysis; format: cell-based; conditions: dose microM <=4, time 72.0 hrs
[16] = target: T3, Amine oxidase [flavin-containing] B (Homo sapiens, UniProt P27338); experiment: Inhibition of recombinant N-terminal FLAG-tagged human MAOB expressed in baculovirus infected Sf9 insect cells using luminogenic MAO substrate measured after 1 hr by MAO-glo assay
T3 sequence (P27338 whole entry): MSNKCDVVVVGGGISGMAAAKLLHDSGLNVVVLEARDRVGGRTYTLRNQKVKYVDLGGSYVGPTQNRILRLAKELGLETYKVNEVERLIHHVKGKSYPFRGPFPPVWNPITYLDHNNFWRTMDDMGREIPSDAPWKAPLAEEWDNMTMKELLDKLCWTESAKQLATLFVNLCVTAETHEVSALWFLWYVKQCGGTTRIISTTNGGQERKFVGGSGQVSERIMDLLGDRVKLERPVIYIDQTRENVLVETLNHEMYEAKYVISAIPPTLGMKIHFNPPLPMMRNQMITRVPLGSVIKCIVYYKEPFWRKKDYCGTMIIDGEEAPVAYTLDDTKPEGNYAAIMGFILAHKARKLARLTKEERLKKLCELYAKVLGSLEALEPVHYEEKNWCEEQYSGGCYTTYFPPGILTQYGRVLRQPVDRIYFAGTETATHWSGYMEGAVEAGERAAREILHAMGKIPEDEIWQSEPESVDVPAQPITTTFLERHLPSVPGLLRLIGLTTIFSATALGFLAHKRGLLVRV

[17] = target: T1, Lysine-specific histone demethylase 1A; experiment: Inhibition of LSD1 in human MGC-803 cells assessed as increase in H3K4me2 accumulation measured after 72 hrs by Western blot analysis; format: cell-based
[18] = system: MGC-803; experiment: Induction of apoptosis in human MGC-803 cells after 72 hrs by Annexin V-FITC/propidium iodide staining based flow cytometry; format: functional, cell-based
[19] = target: T1, Lysine-specific histone demethylase 1A; experiment: Inhibition of LSD1 in human MGC-803 cells assessed as increase in H3K9me1 accumulation up to 4 uM measured after 72 hrs by Western blot analysis; format: cell-based; conditions: dose microM <=4, time 72.0 hrs
[20] = Stability in human liver microsomes assessed as parent compound remaining measured 60 mins after mins by LC-MS/MS analysis; format: ADME, Microsome; conditions: liver microsomes, read-out: Stabilty
[21] = system: MGC-803; experiment: Induction of apoptosis in human MGC-803 cells assessed as apoptotic rate at 4 uM after 72 hrs by Annexin V-FITC/propidium iodide staining based flow cytometry relative to control; format: functional
[22] = Half life in human liver microsomes preincubated for 10 mins followed by NADPH regenerating system addition and measured up to 60 mins by LC-MS/MS analysis; format: ADME, Microsome; conditions: time 10-70 min
[23] = Intrinsic clearance in human microsomes preincubated for 10 mins followed by NADPH regenerating system addition and measured up to 60 mins by LC-MS/MS analysis; format: ADME, Microsome; conditions: time 10-70 min

Compound: Cn1c(C(=O)Nc2cccc3c2N(Cc2ccc(OC[C@@H]4CCNC4)cc2)CCC3)cc2sccc21
IC50 [1]: 5.23 µM
IC50 [2]: 80.4 nM

Compound: Cn1c(C(=O)Nc2cccc3c2N(Cc2ccc(O[C@H]4CC[C@@H](N)CC4)cc2)CCC3)cc2sccc21
IC50 [1]: 7.3 µM
IC50 [2]: 38.3 nM

Compound: Cn1c(C(=O)Nc2cccc3c2N(Cc2ccc(OCC4CCNCC4)cc2)CCC3)cc2sccc21
IC50 [3]: 6.59 µM
IC50 [1]: 2.82 µM
IC50 [4]: 20.4 µM
IC50 [5]: 2.88 µM
IC50 [6]: 3.69 µM
IC50 [2]: 37.7 nM
IC50 [7]: 4.07 µM

Compound: N[C@H]1CC[C@H](N[C@H]2C[C@@H]2c2ccccc2)CC1
IC50 [3]: > 30 µM
IC50 [1]: > 30 µM
IC50 [4]: > 30 µM
IC50 [5]: > 30 µM
IC50 [6]: > 30 µM
IC50 [7]: > 30 µM

Compound: Cn1c(C(=O)Nc2cccc3c2N(Cc2ccc(OC4CCNC4)cc2)CCC3)cc2sccc21 (stereo unspecified)
IC50 [1]: 3.64 µM
IC50 [2]: 46.8 nM

Compound: Cn1c(C(=O)Nc2cccc3c2N(Cc2ccc(OC4CCNCC4)cc2)CCC3)cc2sccc21
IC50 [3]: 5.72 µM
IC50 [1]: 1.25 µM
IC50 [4]: 18.1 µM
IC50 [5]: 2.78 µM
IC50 [6]: 2.17 µM
IC50 [2]: 36.4 nM
IC50 [7]: 3.64 µM

Compound: Cn1c(C(=O)Nc2cccc3c2N(Cc2ccc(OCCCN)cc2)CCC3)cc2sccc21
IC50 [2]: 47.4 nM

Compound: CN1CCC(Oc2ccc(CN3CCCc4cccc(NC(=O)c5cc6sccc6n5C)c43)cc2)CC1
IC50 [2]: 38.2 nM

Compound: Cn1c(C(=O)Nc2cccc3c2N(Cc2ccc(OCc4ccc(N)cc4)cc2)CCC3)cc2sccc21
IC50 [2]: > 50000 nM

More lines, main results first:

solubility [8]: Insoluble
IC50 [2]: 17.3 nM
Compound: Cn1c(C(=O)Nc2cccc3c2N(Cc2ccc(OCC4CC[N+](C)(C)CC4)cc2)CCC3)cc2sccc21

IC50 [3]: 5.59 µM
IC50 [1]: 8.39 µM
IC50 [4]: 10.2 µM
IC50 [5]: 1.1 µM
IC50 [6]: 3.67 µM
IC50 [2]: 0.15 nM
IC50 [7]: 5.43 µM
Compound: CCn1c(C(=O)Nc2cccc3c2N(Cc2ccc(OC4CCNCC4)cc2)CCC3)cc2ccccc21

solubility [8]: Insoluble
IC50 [2]: 8.25 nM
Compound: Cn1c(C(=O)Nc2cccc3c2N(Cc2ccc(OC4CC[N+](C)(C)CC4)cc2)CCC3)cc2sccc21

IC50 [3]: 6.96 µM
IC50 [1]: 7.67 µM
IC50 [4]: 9.78 µM
IC50 [5]: 3.29 µM
IC50 [6]: 6.26 µM
IC50 [2]: 0.06 nM
IC50 [7]: 2.6 µM
Compound: O=C(Nc1cccc2c1N(Cc1ccc(OC3CCNCC3)cc1)CCC2)c1cc2ccccc2n1CCF

remaining at 1 h [10]: 20.3%
IC50 [11]: > 50 µM
inhibition [12]: Active
IC50 [3]: 5.83 µM
IC50 [1]: 5.97 µM
IC50 [4]: 9.68 µM
inhibition [14]: Active
inhibition [15]: Active
IC50 [16]: > 50 µM
inhibition [17]: Dose-dependent effect
IC50 [5]: 9.53 µM
inhibition [19]: Active
remaining at 1 h [20]: 101%
IC50 [6]: 1.13 µM
IC50 [2]: 0.05 nM
IC50 [7]: 2.86 µM
half-life [22]: 27.7 min
microsomal CLint [23]: 50.1 µL/min/mg
Compound: Cn1c(C(=O)Nc2cccc3c2N(Cc2ccc(OC4CCNCC4)cc2)CCC3)cc2ccccc21
Activity [9]: Active
Activity [13]: Active
Activity [18]: Dose-dependent effect
Activity [21]: 22.79%

IC50 [2]: 1.52 nM
Compound: CCCn1c(C(=O)Nc2cccc3c2N(Cc2ccc(OC4CCNCC4)cc2)CCC3)cc2ccccc21

IC50 [2]: 3.92 nM
Compound: Cn1ccc2c(C(=O)Nc3cccc4c3N(Cc3ccc(OC5CCNCC5)cc3)CCC4)cccc21

IC50 [2]: 0.92 nM
Compound: O=C(Nc1cccc2c1N(Cc1ccc(OC3CCNCC3)cc1)CCC2)c1nc2ccccc2s1

IC50 [2]: 0.78 nM
Compound: O=C(Nc1cccc2c1N(Cc1ccc(OC3CCNCC3)cc1)CCC2)c1cc2ccccc2n1CC(F)F

IC50 [2]: 1.13 nM
Compound: Cn1c(C(=O)Nc2cccc3c2N(Cc2ccc(OC4CCNCC4)cc2)CCC3)cc2ccc(Cl)cc21

IC50 [2]: 4.55 nM
Compound: Cn1cc(C(=O)Nc2cccc3c2N(Cc2ccc(OC4CCNCC4)cc2)CCC3)c2ccccc21

IC50 [2]: 4.58 nM
Compound: O=C(Nc1cccc2c1N(Cc1ccc(OC3CCNCC3)cc1)CCC2)c1ccc2[nH]ccc2c1

From ChEMBL document CHEMBL4680245, “Design, synthesis and biological evaluation of tetrahydroquinoline-based reversible LSD1 inhibitors” (Eur J Med Chem, 2020)
